Consider five compounds from article PMC10017790 (Nature Communications, 2023).

One data set concerns CaPPAR. Format: biochemical, Capsicum annuum. As to conditions: 2 mM NADPH, 0.1 M Tris-HCl pH 8.0, 1 h.
The test system of another data set is T1, PaPPAR.
T1 construct: gene PPAR
It counts as biochemical, Petunia axillaris. The note with it: 2 mM NADPH, 0.1 M Tris-HCl pH 8.0, 1 h.

The next data set relates to O=C(O)C(=O)Cc1ccccc1. In words: purified protein. The note with it: 2 mM NADPH, 0.1 M Tris-HCl pH 8.0, 1 h.
The target of another data set is T2, AbLS (Atropa belladonna, UniProt A0A3B6XRA5).
T2 construct: gene LS
T2 sequence (A0A3B6XRA5 34-476 limits assumed): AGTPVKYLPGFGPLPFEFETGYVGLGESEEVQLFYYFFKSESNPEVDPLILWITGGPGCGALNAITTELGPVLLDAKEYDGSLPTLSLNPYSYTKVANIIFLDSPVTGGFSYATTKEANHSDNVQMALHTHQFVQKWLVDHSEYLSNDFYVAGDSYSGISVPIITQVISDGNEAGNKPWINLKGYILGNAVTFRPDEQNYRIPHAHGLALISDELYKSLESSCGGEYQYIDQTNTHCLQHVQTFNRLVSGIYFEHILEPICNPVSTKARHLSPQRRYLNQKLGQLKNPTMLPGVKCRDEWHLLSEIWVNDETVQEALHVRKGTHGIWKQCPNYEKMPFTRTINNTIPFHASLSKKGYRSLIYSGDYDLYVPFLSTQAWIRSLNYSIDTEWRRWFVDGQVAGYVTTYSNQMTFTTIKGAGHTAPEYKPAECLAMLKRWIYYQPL
The note with it: 1 mM tropine and 1 mM phenyllactate infiltrated; AbUGT1 coexpressed; 24 h.

The target of a further data set is T3, SlTRI (Solanum lycopersicum, UniProt A0A3Q7IM65).
T3 construct: gene LOC101265293; CDS cloned from cDNA into pET28a; recombinant His-tagged, Ni-NTA purified; Leu159 printed
T3 sequence (A0A3Q7IM65 9-272): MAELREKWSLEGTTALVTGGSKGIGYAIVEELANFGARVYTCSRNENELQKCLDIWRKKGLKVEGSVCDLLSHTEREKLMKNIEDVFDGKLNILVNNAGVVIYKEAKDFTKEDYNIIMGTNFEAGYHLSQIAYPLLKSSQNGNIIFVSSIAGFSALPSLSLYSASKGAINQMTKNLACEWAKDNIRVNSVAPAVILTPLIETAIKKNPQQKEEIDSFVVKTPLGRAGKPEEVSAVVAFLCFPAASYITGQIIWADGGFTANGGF
Format: biochemical. As to conditions: 200 uM NADPH, 0.1 M potassium phosphate pH 6.4, 30 C.

Turning to `O=C(O)C(=O)Cc1ccccc1` [phenylpyruvic acid], the results for the Km in the data set with CaPPAR and in the data set on PaPPAR were 3020 ± 485 µM and 2650 ± 374 µM, respectively.
For the compound SlPPAR (Solanum lycopersicum), in the data set with O=C(O)C(=O)Cc1ccccc1, the Km (usually the substrate concentration at which the rate is half of its maximum) was 1380 ± 130 µM and the kcat (in general, the maximal rate divided by the concentration of active sites) came out at 0.03355 ± 0.00253 s⁻¹.
With `CN1[C@@H]2CC[C@H]1C[C@@H](O)C2` [tropine], the “transient expression in N. benthamiana leaves, littorine by UPLC-MS” value on AbLS was “we detected littorine in tobacco leaves expressing DsLS and AbLS”.
For `CN1[C@@H]2CC[C@H]1CC(=O)C2` [tropinone], the Km entry on SlTRI was “TRI from tomato also showed TRI activity”.
For the compound AbPPAR (Atropa belladonna), in the data set on O=C(O)C(=O)Cc1ccccc1, the Km is 2085 ± 461.3 µM and the kcat stood at 0.0098 ± 0.00074 s⁻¹.
